In ChEMBL document CHEMBL1909046, “DrugMatrix in vitro pharmacology data”:

How the values were obtained:
[1] = biological target: T1, Muscarinic acetylcholine receptor M5 (Homo sapiens, UniProt P08912); type: cell membranes, CHO-K1, Membrane
T1 sequence (P08912 whole entry): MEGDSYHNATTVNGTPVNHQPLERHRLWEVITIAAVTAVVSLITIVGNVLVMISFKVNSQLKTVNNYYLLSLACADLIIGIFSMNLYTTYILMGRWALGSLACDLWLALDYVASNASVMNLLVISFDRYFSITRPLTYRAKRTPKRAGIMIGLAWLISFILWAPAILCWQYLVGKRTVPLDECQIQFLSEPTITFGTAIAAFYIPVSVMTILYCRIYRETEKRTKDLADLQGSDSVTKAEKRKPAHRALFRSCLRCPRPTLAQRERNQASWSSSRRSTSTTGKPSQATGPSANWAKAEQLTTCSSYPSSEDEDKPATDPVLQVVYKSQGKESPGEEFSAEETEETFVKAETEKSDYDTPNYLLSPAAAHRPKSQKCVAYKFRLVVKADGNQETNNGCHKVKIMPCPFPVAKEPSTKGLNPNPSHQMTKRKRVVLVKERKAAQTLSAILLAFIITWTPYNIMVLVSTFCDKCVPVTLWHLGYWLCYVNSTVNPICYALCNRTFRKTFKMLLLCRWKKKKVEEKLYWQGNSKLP

Cytochrome P450 2E1 = Cytochrome P450 2E1 (Homo sapiens, UniProt P05181); settings: bti-tn-5b1-4
Adenosine receptor A3 = biological target: T2, Adenosine receptor A3 (Homo sapiens, UniProt P0DMS8); type: cell membranes, CHO-K1, Membrane;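 also: radioligand binding assay with AB-MECA serving as the labeled ligand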
T2 sequence (P0DMS8 whole entry): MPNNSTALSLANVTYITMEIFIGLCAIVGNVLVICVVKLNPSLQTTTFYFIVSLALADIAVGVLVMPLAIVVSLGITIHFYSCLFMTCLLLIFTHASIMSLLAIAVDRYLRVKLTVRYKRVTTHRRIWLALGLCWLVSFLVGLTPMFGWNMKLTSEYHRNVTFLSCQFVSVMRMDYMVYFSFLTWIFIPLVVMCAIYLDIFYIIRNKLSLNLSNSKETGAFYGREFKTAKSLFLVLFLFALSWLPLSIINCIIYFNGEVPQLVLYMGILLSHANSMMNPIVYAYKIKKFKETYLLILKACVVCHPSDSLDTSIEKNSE

[2] = biological target: T3, 3-hydroxy-3-methylglutaryl-coenzyme A reductase (Homo sapiens, UniProt P04035); parameters: species or system Escherichia coli;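 also: enzyme inhibition assay of HMG-CoA reductase using radiolabeled [14C]HMG-CoA as substrate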
T3 sequence (P04035 whole entry): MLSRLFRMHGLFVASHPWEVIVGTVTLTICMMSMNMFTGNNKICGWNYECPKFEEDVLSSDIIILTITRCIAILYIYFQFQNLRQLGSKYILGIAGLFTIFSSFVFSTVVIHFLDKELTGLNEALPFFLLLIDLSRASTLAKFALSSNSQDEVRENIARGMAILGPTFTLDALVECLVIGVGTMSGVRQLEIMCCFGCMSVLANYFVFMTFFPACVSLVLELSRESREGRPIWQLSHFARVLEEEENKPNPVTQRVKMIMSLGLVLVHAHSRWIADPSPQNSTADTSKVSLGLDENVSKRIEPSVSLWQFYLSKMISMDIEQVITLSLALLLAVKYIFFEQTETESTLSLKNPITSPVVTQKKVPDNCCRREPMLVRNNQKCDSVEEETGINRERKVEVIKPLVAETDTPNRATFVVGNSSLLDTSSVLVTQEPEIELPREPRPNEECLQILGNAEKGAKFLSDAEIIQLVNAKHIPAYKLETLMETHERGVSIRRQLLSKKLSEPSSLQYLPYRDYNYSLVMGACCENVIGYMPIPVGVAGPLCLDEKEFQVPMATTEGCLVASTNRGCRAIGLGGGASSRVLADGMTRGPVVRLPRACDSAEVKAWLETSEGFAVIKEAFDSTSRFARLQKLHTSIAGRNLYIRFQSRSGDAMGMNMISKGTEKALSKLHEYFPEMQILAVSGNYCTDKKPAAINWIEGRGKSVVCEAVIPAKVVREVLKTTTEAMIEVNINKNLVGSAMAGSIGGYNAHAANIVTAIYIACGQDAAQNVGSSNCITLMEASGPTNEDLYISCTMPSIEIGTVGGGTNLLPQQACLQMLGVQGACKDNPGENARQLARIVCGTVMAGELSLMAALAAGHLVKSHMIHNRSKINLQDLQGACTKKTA

[3] = biological target: T4, 5-hydroxytryptamine receptor 1A (Rattus norvegicus, UniProt P19327); type: cell membranes, CHO-K1, Membrane
T4 sequence (P19327 whole entry): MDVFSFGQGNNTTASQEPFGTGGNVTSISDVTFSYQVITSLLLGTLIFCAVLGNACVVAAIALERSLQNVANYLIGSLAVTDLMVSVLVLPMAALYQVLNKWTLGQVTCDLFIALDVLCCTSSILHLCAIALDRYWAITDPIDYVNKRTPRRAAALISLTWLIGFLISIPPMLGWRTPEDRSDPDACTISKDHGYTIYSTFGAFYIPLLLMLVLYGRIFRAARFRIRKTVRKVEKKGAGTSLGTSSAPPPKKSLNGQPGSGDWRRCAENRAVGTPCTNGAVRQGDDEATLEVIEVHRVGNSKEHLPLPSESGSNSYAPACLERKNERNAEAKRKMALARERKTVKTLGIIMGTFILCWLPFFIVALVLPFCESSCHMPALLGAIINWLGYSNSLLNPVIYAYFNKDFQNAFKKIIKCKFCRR
Also: in other assays of this panel Not Active means under 50% inhibition at 10 µM.

Cytochrome P450 2E1, sequence (P05181 whole entry): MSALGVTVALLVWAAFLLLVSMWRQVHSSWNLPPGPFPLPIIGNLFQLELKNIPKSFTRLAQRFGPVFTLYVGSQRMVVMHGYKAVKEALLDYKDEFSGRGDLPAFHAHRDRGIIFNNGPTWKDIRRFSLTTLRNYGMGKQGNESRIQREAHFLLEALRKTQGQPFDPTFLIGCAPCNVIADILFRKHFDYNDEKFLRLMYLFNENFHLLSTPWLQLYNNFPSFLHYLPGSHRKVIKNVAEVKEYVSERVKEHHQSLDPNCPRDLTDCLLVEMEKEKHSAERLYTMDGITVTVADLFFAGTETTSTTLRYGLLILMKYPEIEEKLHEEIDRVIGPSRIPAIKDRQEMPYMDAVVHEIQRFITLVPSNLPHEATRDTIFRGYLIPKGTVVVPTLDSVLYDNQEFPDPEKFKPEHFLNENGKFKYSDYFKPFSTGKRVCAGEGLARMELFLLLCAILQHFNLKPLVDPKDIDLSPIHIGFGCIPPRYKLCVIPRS

Row | Compound | IC50 ([1]; cho-k1) | IC50 (Cytochrome P450 2E1) | Ki (Cytochrome P450 2E1) | IC50 (Adenosine receptor A3; cho-k1) | IC50 [2] | IC50 ([3]; cho-k1) | other results
1 | O=C(O)c1ccccc1O [SALICYLIC ACID] | Not Active | Not Active | Not Active | Not Active | Not Active | Not Active | –
2 | C[S+]([O-])c1ccc(-c2nc(-c3ccncc3)c(-c3ccc(F)cc3)[nH]2)cc1 (stereo not given) [SB-203580] | Not Active | Not Active | Not Active | Not Active | Not Active | Not Active | –
3 | CC1CCC(NC(=O)N(CCCl)N=O)CC1 (stereo not given) [SEMUSTINE] | Not Active | Not Active | Not Active | Not Active | Not Active | Not Active | –
4 | O=C1C[C@@H]2OCC=C3CN4CC[C@]56c7ccccc7N1[C@H]5[C@H]2[C@H]3C[C@H]46 [STRYCHNINE] | Not Active | Not Active | Not Active | Not Active | Not Active | Not Active | –
5 | C[N+](C)(C)CCOC(=O)CCC(=O)OCC[N+](C)(C)C.[Cl-].[Cl-] [SUCCINYLCHOLINE CHLORIDE] | Not Active | Not Active | Not Active | Not Active | Not Active | Not Active | –
6 | Nc1ccc(S(=O)(=O)NC(=O)c2ccccc2)cc1 [SULFABENZAMIDE] | Not Active | Not Active | Not Active | Not Active | Not Active | Not Active | –
7 | CCCCCCCCNC(C)C(O)c1ccc(SC(C)C)cc1 (stereo not given) [SULOCTIDIL] | – | Not Active | Not Active | – | Not Active | – | IC50 ([1]; read-out: IC50): 4490 nM; Ki ([1]; read-out: Ki): 3220 nM; IC50 (Adenosine receptor A3; read-out: IC50): 3710 nM; Ki (Adenosine receptor A3; read-out: Ki): 2090 nM; IC50 ([3]; read-out: IC50): 544 nM; Ki ([3]; read-out: Ki): 311 nM
8 | O=c1[nH]c(=O)n(C2CCCO2)cc1F (stereo not given) [TEGAFUR] | Not Active | Not Active | Not Active | Not Active | Not Active | Not Active | –
9 | CC(=N)S [THIOACETAMIDE] | Not Active | Not Active | Not Active | Not Active | Not Active | Not Active | –
10 | Cc1ccc(C(=O)c2ccc(CC(=O)O)n2C)cc1 [TOLMETIN] | Not Active | Not Active | Not Active | Not Active | Not Active | Not Active | –
11 | CC(=O)OCC(COC(C)=O)OC(C)=O [TRIACETIN] | Not Active | Not Active | Not Active | Not Active | Not Active | Not Active | –
12 | CN1CCN(CCCN2c3ccccc3Sc3ccc(C(F)(F)F)cc32)CC1 [TRIFLUOPERAZINE] | Not Active | Not Active | Not Active | Not Active | Not Active | Not Active | –
13 | TRANSPLATIN | – | Not Active | Not Active | – | Not Active | Not Active | IC50 ([1]; cho-k1, read-out: IC50): 5930 nM; Ki ([1]; cho-k1, read-out: Ki): 4260 nM; IC50 (Adenosine receptor A3; cho-k1, read-out: IC50): 989 nM; Ki (Adenosine receptor A3; cho-k1, read-out: Ki): 559 nM; Ki [2]: Not Active; Ki ([3]; cho-k1): Not Active
14 | ZIRCONIUM(IV) CHLORIDE | Not Active | Not Active | Not Active | Not Active | Not Active | Not Active | Ki ([1]; cho-k1): Not Active; Ki (Adenosine receptor A3; cho-k1): Not Active; Ki [2]: Not Active; Ki ([3]; cho-k1): Not Active
